According to PubChem BioAssay (NCI):
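A five-concentration, 48-hour dose response in 96-well plates underlies each endpoint, interpolated linearly between surrounding concentrations. TGI: total growth inhibition.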

Assays:
Assay in all cases: inhibition of tumour cell growth, NCI panel, 48 h
HOP-62 NSCLC = tested on: HOP-62 NSCLC
OVCAR-5 ovarian = tested on: OVCAR-5 ovarian
UACC-62 melanoma = tested on: UACC-62 melanoma
SN12C renal = tested on: SN12C renal
UACC-257 melanoma = tested on: UACC-257 melanoma
SNB-19 CNS = tested on: SNB-19 CNS
CCRF-CEM leukemia = tested on: CCRF-CEM leukemia
HCC-2998 colon = tested on: HCC-2998 colon
OVCAR-3 ovarian = tested on: OVCAR-3 ovarian
PC-3 prostate = tested on: PC-3 prostate
HT29 colon = tested on: HT29 colon
T-47D breast = tested on: T-47D breast
EKVX NSCLC = tested on: EKVX NSCLC
NCI-H23 lung = tested on: NCI-H23 lung
NCI-H460 lung = tested on: NCI-H460 lung
SK-MEL-28 melanoma = tested on: SK-MEL-28 melanoma
ACHN renal = tested on: ACHN renal
MCF7 breast = tested on: MCF7 breast
SK-MEL-5 melanoma = tested on: SK-MEL-5 melanoma
BT-549 breast = tested on: BT-549 breast
NCI-H522 lung = tested on: NCI-H522 lung
CAKI-1 renal = tested on: CAKI-1 renal
RXF 393 renal = tested on: RXF 393 renal
HCT-15 colon = tested on: HCT-15 colon
SF-295 CNS = tested on: SF-295 CNS
M14 melanoma = tested on: M14 melanoma
MDA-MB-435 = tested on: MDA-MB-435
A498 renal = tested on: A498 renal
MOLT-4 leukemia = tested on: MOLT-4 leukemia
SW-620 colon = tested on: SW-620 colon
786-0 renal = tested on: 786-0 renal
MDA-MB-231 breast = tested on: MDA-MB-231 breast
COLO 205 colon = tested on: COLO 205 colon
NCI-H226 lung = tested on: NCI-H226 lung
HS 578T breast = tested on: HS 578T breast
HL-60(TB) leukemia = tested on: HL-60(TB) leukemia
NCI/ADR-RES ovarian = tested on: NCI/ADR-RES ovarian
MDA-N = tested on: MDA-N
SF-268 CNS = tested on: SF-268 CNS
DU-145 prostate = tested on: DU-145 prostate
SR leukemia = tested on: SR leukemia
TK-10 renal = tested on: TK-10 renal
U251 CNS = tested on: U251 CNS
UO-31 renal = tested on: UO-31 renal
KM12 colon = tested on: KM12 colon
A549 NSCLC = tested on: A549 NSCLC
HCT-116 colon = tested on: HCT-116 colon
K-562 leukemia = tested on: K-562 leukemia
HOP-92 NSCLC = tested on: HOP-92 NSCLC
SNB-75 CNS = tested on: SNB-75 CNS
MALME-3M melanoma = tested on: MALME-3M melanoma
OVCAR-4 ovarian = tested on: OVCAR-4 ovarian
LOX IMVI melanoma = tested on: LOX IMVI melanoma
IGROV1 ovarian = tested on: IGROV1 ovarian
SK-OV-3 ovarian = tested on: SK-OV-3 ovarian
OVCAR-8 ovarian = tested on: OVCAR-8 ovarian
SK-MEL-2 melanoma = tested on: SK-MEL-2 melanoma
RPMI-8226 leukemia = tested on: RPMI-8226 leukemia
SF-539 CNS = tested on: SF-539 CNS

c1ccc(C(Oc2noc3ccccc23)c2ccccc2)cc1
TGI (HOP-62 NSCLC): > 100 µM | TGI (OVCAR-5 ovarian): > 100 µM | TGI (UACC-62 melanoma): > 100 µM | TGI (SN12C renal): > 100 µM | TGI (UACC-257 melanoma): 99.6 µM | TGI (SNB-19 CNS): > 100 µM | TGI (CCRF-CEM leukemia): 49.7 µM | TGI (HCC-2998 colon): 44.7 µM | TGI (OVCAR-3 ovarian): > 100 µM | TGI (PC-3 prostate): > 100 µM | TGI (HT29 colon): > 100 µM | TGI (T-47D breast): 23.1 µM | TGI (EKVX NSCLC): > 100 µM | TGI (NCI-H23 lung): > 100 µM | TGI (NCI-H460 lung): > 100 µM | TGI (SK-MEL-28 melanoma): > 100 µM | TGI (ACHN renal): > 100 µM | TGI (MCF7 breast): > 100 µM | TGI (SK-MEL-5 melanoma): 39.6 µM | TGI (BT-549 breast): 96.4 µM | TGI (NCI-H522 lung): > 100 µM | TGI (CAKI-1 renal): > 100 µM | TGI (RXF 393 renal): 35.9 µM | TGI (HCT-15 colon): > 100 µM | TGI (SF-295 CNS): > 100 µM | TGI (M14 melanoma): 63.5 µM | TGI (MDA-MB-435): 75.4 µM | TGI (A498 renal): > 100 µM | TGI (MOLT-4 leukemia): 71.7 µM | TGI (SW-620 colon): > 100 µM | TGI (786-0 renal): > 100 µM | TGI (MDA-MB-231 breast): > 100 µM | TGI (COLO 205 colon): 37 µM | TGI (NCI-H226 lung): > 100 µM | TGI (HS 578T breast): > 100 µM | TGI (HL-60(TB) leukemia): 61.3 µM | TGI (NCI/ADR-RES ovarian): > 100 µM | TGI (MDA-N): 67.2 µM | TGI (SF-268 CNS): > 100 µM | TGI (DU-145 prostate): 78.6 µM | TGI (SR leukemia): 51.6 µM | TGI (TK-10 renal): > 100 µM | TGI (U251 CNS): > 100 µM | TGI (UO-31 renal): > 100 µM | TGI (KM12 colon): > 100 µM | TGI (A549 NSCLC): > 100 µM | TGI (HCT-116 colon): > 100 µM | TGI (K-562 leukemia): > 100 µM | TGI (HOP-92 NSCLC): > 100 µM | TGI (SNB-75 CNS): 37 µM | TGI (MALME-3M melanoma): > 100 µM | TGI (OVCAR-4 ovarian): > 100 µM | TGI (LOX IMVI melanoma): > 100 µM | TGI (IGROV1 ovarian): > 100 µM | TGI (SK-OV-3 ovarian): > 100 µM | TGI (OVCAR-8 ovarian): > 100 µM

O=[N+]([O-])c1cccc(/C=N/Nc2ccc3ccccc3n2)c1O
TGI (HOP-62 NSCLC): 8.9 µM | TGI (OVCAR-5 ovarian): 48.3 µM | TGI (UACC-62 melanoma): 20.2 µM | TGI (SN12C renal): 16.1 µM | TGI (SK-MEL-2 melanoma): 34.8 µM | TGI (UACC-257 melanoma): 7.67 µM | TGI (SNB-19 CNS): 47.4 µM | TGI (OVCAR-3 ovarian): 0.632 µM | TGI (RPMI-8226 leukemia): 24.3 µM | TGI (PC-3 prostate): 56.7 µM | TGI (SF-539 CNS): 8.91 µM | TGI (HT29 colon): 20.5 µM | TGI (T-47D breast): 4.89 µM | TGI (EKVX NSCLC): 39.1 µM | TGI (NCI-H23 lung): 12.1 µM | TGI (NCI-H460 lung): 7.21 µM | TGI (SK-MEL-28 melanoma): > 65.6 µM | TGI (MCF7 breast): 11.4 µM | TGI (SK-MEL-5 melanoma): 3.45 µM | TGI (BT-549 breast): 37.9 µM | TGI (NCI-H522 lung): 7.52 µM | TGI (CAKI-1 renal): 16.5 µM | TGI (RXF 393 renal): 17.4 µM | TGI (HCT-15 colon): > 100 µM | TGI (SF-295 CNS): 14.2 µM | TGI (M14 melanoma): 5.32 µM | TGI (MDA-MB-435): 20.1 µM | TGI (A498 renal): > 66.9 µM | TGI (MOLT-4 leukemia): 10.7 µM | TGI (SW-620 colon): > 48.4 µM | TGI (786-0 renal): 12.7 µM | TGI (MDA-MB-231 breast): 25.6 µM | TGI (COLO 205 colon): 9.48 µM | TGI (NCI-H226 lung): 9.98 µM | TGI (HS 578T breast): > 88.6 µM | TGI (HL-60(TB) leukemia): 3.13 µM | TGI (NCI/ADR-RES ovarian): 3.5 µM | TGI (MDA-N): 34.3 µM | TGI (SF-268 CNS): 15.3 µM | TGI (DU-145 prostate): 17.7 µM | TGI (SR leukemia): 21.4 µM | TGI (TK-10 renal): > 44.9 µM | TGI (U251 CNS): 16.4 µM | TGI (UO-31 renal): 3 µM | TGI (KM12 colon): 32.9 µM | TGI (A549 NSCLC): > 70.8 µM | TGI (HCT-116 colon): 4.77 µM | TGI (K-562 leukemia): > 100 µM | TGI (HOP-92 NSCLC): > 46.9 µM | TGI (MALME-3M melanoma): 11.3 µM | TGI (OVCAR-4 ovarian): > 39.6 µM | TGI (LOX IMVI melanoma): 12.7 µM | TGI (IGROV1 ovarian): > 42.7 µM | TGI (SK-OV-3 ovarian): 11.1 µM | TGI (OVCAR-8 ovarian): > 39 µM
